Patent US5171864A, “Di-(5-hydroxy-2(5H)-2-oxo-4-furyl)methyl-alpha,omega alkane-dioates and N,N-bis-(5-hydroxy-2(5H)-2-oxo-4-furyl)methyl-alpha,omega-dialkanoic acid amides as anti-inflammatory agents” (Allergan, Inc., priority 1991, dated 1992)
Read-outs that look alike come from different tables or passages of the source.

Legend:
[1] = target: bee venom phospholipase A2 (Apis mellifera, UniProt P00630); assay: biochemical; settings: read-out: PLA2 IC50
[2] = target: phosphoinositide-specific phospholipase C; assay: Inhibition of phosphoinositide-specific phospholipase C (PLC); assay type: biochemical; settings: procedure of Bennett et al, Molecular Pharmacology 32:587-593 (1987)
Source text: Inhibition of Phosphoinositide-specific Phospholipase C
The effect of compounds of this invention on phosphoinositide-specific phospholipase C may be determined by procedures described by Bennett et al, Molecular Pharmacology 32:587-593 (1987).

Chain of bee venom phospholipase A2 (P00630 34-167 limits assumed): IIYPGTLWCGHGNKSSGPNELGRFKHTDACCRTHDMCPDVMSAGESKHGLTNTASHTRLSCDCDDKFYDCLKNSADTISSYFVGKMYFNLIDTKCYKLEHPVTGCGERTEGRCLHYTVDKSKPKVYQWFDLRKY

Structure (SMILES): O=C1C=C(COC(=O)CCCCCCCCCCC(=O)OCC2=CC(=O)OC2O)C(O)O1 (stereo not shown) [Compound 1, Di-[5-hydroxy-2(5H)-2-oxo-4-furyl]methyl dodecan-1,12-dioate]
- IC50 [1]: 0.07 µM
- IC50 [2]: > 100 µM

Structure (SMILES): CC(C)(C)C(=O)OC1OC(=O)C=C1COC(=O)CCCCCCCCCCC(=O)OCC1=CC(=O)OC1OC(=O)C(C)(C)C (stereo not shown) [Compound 2, Di-[5tert-butanoyloxy-2(5H)-furano-4yl]methyl dodecan-1,12-dioate]
- IC50 ([1]; pH 7.4): > 1 µM
- IC50 [2]: > 100 µM

Structure (SMILES): O=C(CCCCCCCCCCC(=O)NCC1=CC(=O)OC1O)NCC1=CC(=O)OC1O (stereo not shown) [Compound 3, N,N'-Bis(5-hydroxy-2(5H)-2-oxo-4-furyl)methyl-1,12-dodecanoic acid amide]
- IC50 [1]: 0.03 µM
- IC50 [2]: > 100 µM

Structure (SMILES): O=C(CCCCCCCCCCC(=O)NCC1=CC(=O)OC1OC(=O)Nc1ccccc1)NCC1=CC(=O)OC1O (stereo not shown) [Compound 4, N-(5-Hydroxy-2(5H)2-oxo-4-furyl)methyl-N'-(5-phenylcarbamoyloxy-2(5H) 2-oxo-4-furyl)methyl-1,12-dodecanamide]
- IC50 ([1]; pH 7.4): > 1 µM
- IC50 [2]: > 100 µM

Structure (SMILES): O=C(CCCCCCCCCCC(=O)NCC1=CC(=O)OC1OC(=O)Nc1ccccc1)NCC1=CC(=O)OC1OC(=O)Nc1ccccc1 (stereo not shown) [Compound 5, N,N'-bis(5-phenylcarbamoyloxy-2(5H)2-oxo-4-furyl)methyl-1.12-dodeca]
- IC50 ([1]; pH 7.4): > 1 µM
- IC50 [2]: > 100 µM
